Columns and labels:
JNK2 = JNK2 (Homo sapiens, UniProt P45984); experiment: spectrophotometric coupled-enzyme kinase inhibition assay; format: biochemical; conditions: ATP equal to Km, 30°C
Experimental: (§1) Affinity was measured using a kinase inhibition assay. Compounds were assayed for the inhibition of various kinases using a modification of a spectrophotometric coupled-enzyme assay. In this assay, a fixed concentration of activated kinase (10–40 nM) was incubated with various concentrations of a potential inhibitor dissolved in DMSO for 10 minutes at 30°C in a buffer containing 0.1 M HEPES, pH 7.5, containing 10 mM MgCl2, 2.5 mM phosphoenolpyruvate, 200 µM NADH, 2 mM DTT, 30 µg/mL pyruvate kinase, 10 µg/mL lactate dehydrogenase, and 200 µM–500 µM EGF receptor peptide. The EGF receptor peptide has the sequence […]. The reaction was initiated by the addition of ATP equal to the ATP Km of the kinase, and the assay plate is inserted into the spectrophotometer’s assay plate compartment that was maintained at 30°C. The decrease of absorbance at 340 nm was monitored as a function of time for 10 minutes. The rate data as a function of inhibitor concentration was either fit as an IC50 or to a competitive inhibition kinetic model to determine the compound Ki (see table 1).

CDK2 = CDK2 (Homo sapiens, UniProt P24941); experiment: as above; format: biochemical; conditions: read-out: Ki or IC50 CDK2
Experimental: as §1

IRAK = experiment: as above; format: biochemical; conditions: read-out: Ki or IC50 IRAK
Experimental: as §1

PLK1 = PLK1 (Homo sapiens, UniProt P53350); experiment: as above; format: biochemical; conditions: read-out: Ki or IC50 PLK1
Chain of PLK1 (P53350 whole entry, species assumed): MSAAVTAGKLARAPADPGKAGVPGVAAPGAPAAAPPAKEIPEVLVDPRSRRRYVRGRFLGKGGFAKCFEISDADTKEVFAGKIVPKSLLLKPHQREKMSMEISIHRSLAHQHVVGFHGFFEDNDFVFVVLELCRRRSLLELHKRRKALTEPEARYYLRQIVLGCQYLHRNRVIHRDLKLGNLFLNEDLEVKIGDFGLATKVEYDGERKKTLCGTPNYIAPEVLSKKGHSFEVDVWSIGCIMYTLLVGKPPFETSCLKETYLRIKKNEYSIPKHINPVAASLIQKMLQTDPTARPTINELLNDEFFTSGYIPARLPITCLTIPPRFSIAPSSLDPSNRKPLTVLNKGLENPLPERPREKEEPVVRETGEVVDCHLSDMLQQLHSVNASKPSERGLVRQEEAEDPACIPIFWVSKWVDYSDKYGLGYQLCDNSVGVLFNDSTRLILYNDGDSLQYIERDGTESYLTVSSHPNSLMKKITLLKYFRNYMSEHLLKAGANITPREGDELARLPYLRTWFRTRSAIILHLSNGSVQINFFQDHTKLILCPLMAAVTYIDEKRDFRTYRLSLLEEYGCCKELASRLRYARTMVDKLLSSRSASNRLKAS
Experimental: as §1

AurA = target: T1, AurA (Homo sapiens, UniProt O14965); experiment: as above; format: biochemical; conditions: read-out: Ki or IC50 AurA
T1 sequence (O14965 1-403): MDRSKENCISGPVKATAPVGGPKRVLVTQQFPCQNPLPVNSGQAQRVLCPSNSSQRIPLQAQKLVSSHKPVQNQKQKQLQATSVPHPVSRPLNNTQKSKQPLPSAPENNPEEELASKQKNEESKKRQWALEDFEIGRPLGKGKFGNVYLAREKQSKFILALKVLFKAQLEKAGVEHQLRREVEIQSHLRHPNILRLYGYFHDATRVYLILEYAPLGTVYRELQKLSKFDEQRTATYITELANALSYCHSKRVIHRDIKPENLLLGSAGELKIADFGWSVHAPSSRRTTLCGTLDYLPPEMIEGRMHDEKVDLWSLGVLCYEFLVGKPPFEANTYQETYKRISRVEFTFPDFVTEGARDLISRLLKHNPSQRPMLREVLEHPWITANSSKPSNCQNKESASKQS
Experimental: as §1

MKK7 = target: T2, MKK7 (Homo sapiens, UniProt O14733); experiment: as above; format: biochemical; conditions: read-out: Ki or IC50 MKK7
T2 sequence (O14733 1-419): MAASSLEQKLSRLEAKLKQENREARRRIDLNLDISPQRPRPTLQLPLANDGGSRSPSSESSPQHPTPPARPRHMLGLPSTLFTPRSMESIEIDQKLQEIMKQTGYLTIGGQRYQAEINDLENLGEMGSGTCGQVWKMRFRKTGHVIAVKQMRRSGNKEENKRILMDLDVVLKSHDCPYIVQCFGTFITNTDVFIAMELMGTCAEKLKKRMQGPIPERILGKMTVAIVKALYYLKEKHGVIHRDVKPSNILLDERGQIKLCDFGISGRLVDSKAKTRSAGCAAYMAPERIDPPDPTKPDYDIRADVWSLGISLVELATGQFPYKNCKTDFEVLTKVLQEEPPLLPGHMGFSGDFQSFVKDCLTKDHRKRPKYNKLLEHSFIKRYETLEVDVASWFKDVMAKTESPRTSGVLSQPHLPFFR
Experimental: as §1

ZAP70 = target: T3, ZAP70 (Homo sapiens, UniProt P43403); experiment: as above; format: biochemical; conditions: read-out: Ki or IC50 ZAP70
T3 sequence (P43403 1-619): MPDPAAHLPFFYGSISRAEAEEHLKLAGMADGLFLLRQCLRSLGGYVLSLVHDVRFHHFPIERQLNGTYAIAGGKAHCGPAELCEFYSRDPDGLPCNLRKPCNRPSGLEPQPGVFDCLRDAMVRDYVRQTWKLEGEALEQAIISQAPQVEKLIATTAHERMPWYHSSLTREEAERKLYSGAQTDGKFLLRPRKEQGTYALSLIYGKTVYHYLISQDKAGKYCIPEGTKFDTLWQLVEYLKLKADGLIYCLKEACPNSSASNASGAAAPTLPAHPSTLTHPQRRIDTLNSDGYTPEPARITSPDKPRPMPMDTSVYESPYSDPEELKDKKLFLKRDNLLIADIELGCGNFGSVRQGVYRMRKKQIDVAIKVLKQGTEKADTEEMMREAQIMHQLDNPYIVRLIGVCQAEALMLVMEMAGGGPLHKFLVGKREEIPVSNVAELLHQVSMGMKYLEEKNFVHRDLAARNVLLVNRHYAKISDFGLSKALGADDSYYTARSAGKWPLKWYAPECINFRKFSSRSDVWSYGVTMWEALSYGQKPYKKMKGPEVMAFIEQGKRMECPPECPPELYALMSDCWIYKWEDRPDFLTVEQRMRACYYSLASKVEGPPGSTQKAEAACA
Experimental: as §1

cMET = cMET (Homo sapiens, UniProt P08581); experiment: as above; format: biochemical; conditions: read-out: Ki or IC50 cMET
Chain of cMET (P08581 25-1390): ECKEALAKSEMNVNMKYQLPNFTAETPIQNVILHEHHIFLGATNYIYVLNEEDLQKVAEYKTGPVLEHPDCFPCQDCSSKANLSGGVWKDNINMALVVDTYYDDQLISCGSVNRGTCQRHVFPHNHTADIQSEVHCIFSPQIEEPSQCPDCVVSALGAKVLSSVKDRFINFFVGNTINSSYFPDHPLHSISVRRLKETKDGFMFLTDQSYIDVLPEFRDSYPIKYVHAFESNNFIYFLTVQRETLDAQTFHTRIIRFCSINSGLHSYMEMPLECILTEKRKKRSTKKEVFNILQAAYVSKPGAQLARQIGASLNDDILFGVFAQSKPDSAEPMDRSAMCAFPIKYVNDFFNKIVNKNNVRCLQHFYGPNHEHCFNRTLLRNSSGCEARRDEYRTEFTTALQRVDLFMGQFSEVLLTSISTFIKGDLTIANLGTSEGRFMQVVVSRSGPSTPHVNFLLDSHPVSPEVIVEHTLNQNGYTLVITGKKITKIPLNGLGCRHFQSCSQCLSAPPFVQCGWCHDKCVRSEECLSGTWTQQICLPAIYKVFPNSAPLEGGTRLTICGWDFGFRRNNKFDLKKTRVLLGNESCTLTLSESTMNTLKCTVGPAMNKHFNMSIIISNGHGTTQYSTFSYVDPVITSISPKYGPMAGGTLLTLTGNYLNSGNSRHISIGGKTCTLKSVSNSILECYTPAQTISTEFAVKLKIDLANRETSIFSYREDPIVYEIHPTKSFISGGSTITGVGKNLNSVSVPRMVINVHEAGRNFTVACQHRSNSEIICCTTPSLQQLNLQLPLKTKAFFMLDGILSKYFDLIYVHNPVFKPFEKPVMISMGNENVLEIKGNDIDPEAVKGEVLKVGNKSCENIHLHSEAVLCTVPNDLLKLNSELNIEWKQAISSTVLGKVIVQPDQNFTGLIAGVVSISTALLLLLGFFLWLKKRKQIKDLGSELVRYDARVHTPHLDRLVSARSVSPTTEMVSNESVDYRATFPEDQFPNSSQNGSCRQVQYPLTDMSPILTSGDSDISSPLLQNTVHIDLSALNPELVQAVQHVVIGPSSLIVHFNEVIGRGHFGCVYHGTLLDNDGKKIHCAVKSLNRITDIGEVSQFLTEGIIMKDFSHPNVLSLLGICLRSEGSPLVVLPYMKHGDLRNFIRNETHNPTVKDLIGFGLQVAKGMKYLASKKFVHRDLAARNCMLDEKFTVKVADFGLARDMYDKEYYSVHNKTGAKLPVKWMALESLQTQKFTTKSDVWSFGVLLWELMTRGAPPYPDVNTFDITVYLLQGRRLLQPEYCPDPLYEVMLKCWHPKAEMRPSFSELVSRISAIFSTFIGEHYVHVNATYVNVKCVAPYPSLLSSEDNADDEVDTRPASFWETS
Experimental: as §1

[1] = system: vagally mediated falls in heart rate; experiment: falls in heart rate in response to vagal stimulation; format: in vivo, guinea pigs; conditions: ozone-exposed, 30 mg/kg ip 1 h before ozone
Experimental: Guinea pigs were exposed to 2 ppm ozone or filtered air for 4 hours as described previously. Physiological measurements, airway inflammation, and histological measurements were made one day after a single ozone exposure.
Animals were given 30 mg/kg intraperitoneally of the dual p38 and JNK MAPK inhibitors V-05-013, V-05-014, or V-05-015 (Vertex Pharmaceuticals, Cambridge, MA) one hour before ozone exposure (Figure 1). These compounds were chosen because of their overall kinase selectivity profile. […] Inhibitors were dissolved in 25% DMSO in phosphate buffered saline (PBS). Air exposed control animals were given 25% DMSO in PBS one hour before ozone exposure.
Physiological measurements were made as previously described. The jugular veins were cannulated for intravenous administration of drugs and the right carotid artery was cannulated to measure heart rate and blood pressure. Both vagus nerves were cut and distal ends placed on platinum electrodes submerged in liquid paraffin. Animals were tracheostomized, ventilated (1 ml/100 g body weight, 100 breaths per minute) and paralyzed with a constant infusion of succinylcholine (10 µg/kg/min iv, Sigma-Aldrich). Pulmonary inflation pressure was measured at the trachea and bronchoconstriction was measured as the increase in pressure over basal inflation pressure produced by the ventilator.
Electrical stimulation of both vagus nerves (10V, 0.2 ms pulse width, 1–25 Hz, 5 sec duration at 1 minute intervals) produced frequency dependent bronchoconstriction and bradycardia due to release of acetylcholine onto muscarinic receptors.

Chain of JNK2 (P45984 whole entry, species assumed): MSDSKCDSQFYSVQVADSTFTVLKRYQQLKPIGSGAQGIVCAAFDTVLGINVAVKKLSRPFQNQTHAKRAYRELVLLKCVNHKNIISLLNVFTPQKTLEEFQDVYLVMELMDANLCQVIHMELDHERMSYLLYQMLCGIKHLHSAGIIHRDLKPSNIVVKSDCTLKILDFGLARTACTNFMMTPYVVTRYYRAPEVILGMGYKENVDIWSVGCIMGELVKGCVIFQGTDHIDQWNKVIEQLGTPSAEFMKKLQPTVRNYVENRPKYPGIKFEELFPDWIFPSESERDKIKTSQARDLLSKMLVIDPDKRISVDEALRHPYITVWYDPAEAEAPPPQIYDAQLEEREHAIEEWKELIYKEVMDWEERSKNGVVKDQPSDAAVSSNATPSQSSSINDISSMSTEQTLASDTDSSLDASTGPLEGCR

Row | Ki (JNK2) [µM] | Ki (CDK2) [µM] | Ki (IRAK) [µM] | Ki (PLK1) [µM] | Ki (AurA) [µM] | Ki (MKK7) [µM] | Ki (ZAP70) [µM] | Ki (cMET) [µM] | Structure (SMILES) | effect on ozone-induced potentiation of vagally mediated falls in heart rate [1]
1 | 0.01 | > 1 | > 1 | > 1 | > 1 | > 1 | > 1 | > 1 | OC1CCN(Cc2onc(-c3ccc(F)cc3)c2-c2ccnc(NC3CCCCC3)n2)CC1 [V-05-013] | prevented the ozone-induced potentiation of frequency induced falls in heart rate
2 | 0.015 | > 1 | > 1 | > 1 | > 1 | > 1 | > 1 | > 1 | OC[C@@H]1CCCN1Cc1onc(-c2ccc(F)cc2)c1-c1ccnc(NC2CCCCC2)n1 [V-05-014] | prevented the ozone-induced potentiation of frequency induced falls in heart rate
3 | 0.004 | > 1 | > 1 | > 1 | > 1 | > 1 | > 1 | > 1 | Fc1ccc(-c2noc(CN3CCCCC3)c2-c2ccnc(NC3CCCCC3)n2)cc1 [V-05-015] | prevented the ozone-induced potentiation of frequency induced falls in heart rate

From article PMC3776780, “Dual p38/JNK Mitogen Activated Protein Kinase Inhibitors Prevent Ozone-Induced Airway Hyperreactivity in Guinea Pigs” (PLoS ONE, 2013)
